According to paper PMC7133791 (ChemMedChem, 2020):

Tests used:
[1] = molecular target: M. tuberculosis topoI (MttopoI) (Mycobacterium tuberculosis, UniProt P9WG49); assay: DNA relaxation inhibition assay; format: biochemical; conditions: assay conditions for MttopoI not stated; data not shown
[2] = molecular target: T1, Escherichia coli topoisomerase I (EctopoI) (Escherichia coli, UniProt P06612); assay: SPR; format: binding; conditions: PBS-P, pH 7.4, 1% DMSO; no DNA; average of three experimental replicates
T1 sequence (P06612 1-865): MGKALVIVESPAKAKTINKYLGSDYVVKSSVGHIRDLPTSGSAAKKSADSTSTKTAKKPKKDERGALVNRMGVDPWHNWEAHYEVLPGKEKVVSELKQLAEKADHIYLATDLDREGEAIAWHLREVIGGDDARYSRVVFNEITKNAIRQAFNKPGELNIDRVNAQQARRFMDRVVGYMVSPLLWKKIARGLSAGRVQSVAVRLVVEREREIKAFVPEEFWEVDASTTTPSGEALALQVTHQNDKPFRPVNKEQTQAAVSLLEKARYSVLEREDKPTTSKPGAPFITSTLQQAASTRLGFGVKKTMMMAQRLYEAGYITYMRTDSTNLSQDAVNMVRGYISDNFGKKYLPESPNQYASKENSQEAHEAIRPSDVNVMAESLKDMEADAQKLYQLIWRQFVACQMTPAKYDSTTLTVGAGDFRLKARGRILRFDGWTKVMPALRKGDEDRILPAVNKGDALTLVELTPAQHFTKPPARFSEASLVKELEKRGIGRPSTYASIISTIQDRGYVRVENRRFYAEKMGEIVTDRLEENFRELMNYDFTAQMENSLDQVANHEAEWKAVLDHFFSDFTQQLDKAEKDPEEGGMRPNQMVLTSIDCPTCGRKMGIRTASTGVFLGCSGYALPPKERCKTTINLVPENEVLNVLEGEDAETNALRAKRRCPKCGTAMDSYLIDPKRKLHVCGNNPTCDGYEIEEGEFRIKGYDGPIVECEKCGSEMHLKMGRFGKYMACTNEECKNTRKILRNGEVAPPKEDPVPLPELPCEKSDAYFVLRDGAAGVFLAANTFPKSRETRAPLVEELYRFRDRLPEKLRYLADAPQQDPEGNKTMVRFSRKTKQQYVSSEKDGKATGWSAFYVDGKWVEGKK

M. tuberculosis topoI (MttopoI), sequence (P9WG49 whole entry): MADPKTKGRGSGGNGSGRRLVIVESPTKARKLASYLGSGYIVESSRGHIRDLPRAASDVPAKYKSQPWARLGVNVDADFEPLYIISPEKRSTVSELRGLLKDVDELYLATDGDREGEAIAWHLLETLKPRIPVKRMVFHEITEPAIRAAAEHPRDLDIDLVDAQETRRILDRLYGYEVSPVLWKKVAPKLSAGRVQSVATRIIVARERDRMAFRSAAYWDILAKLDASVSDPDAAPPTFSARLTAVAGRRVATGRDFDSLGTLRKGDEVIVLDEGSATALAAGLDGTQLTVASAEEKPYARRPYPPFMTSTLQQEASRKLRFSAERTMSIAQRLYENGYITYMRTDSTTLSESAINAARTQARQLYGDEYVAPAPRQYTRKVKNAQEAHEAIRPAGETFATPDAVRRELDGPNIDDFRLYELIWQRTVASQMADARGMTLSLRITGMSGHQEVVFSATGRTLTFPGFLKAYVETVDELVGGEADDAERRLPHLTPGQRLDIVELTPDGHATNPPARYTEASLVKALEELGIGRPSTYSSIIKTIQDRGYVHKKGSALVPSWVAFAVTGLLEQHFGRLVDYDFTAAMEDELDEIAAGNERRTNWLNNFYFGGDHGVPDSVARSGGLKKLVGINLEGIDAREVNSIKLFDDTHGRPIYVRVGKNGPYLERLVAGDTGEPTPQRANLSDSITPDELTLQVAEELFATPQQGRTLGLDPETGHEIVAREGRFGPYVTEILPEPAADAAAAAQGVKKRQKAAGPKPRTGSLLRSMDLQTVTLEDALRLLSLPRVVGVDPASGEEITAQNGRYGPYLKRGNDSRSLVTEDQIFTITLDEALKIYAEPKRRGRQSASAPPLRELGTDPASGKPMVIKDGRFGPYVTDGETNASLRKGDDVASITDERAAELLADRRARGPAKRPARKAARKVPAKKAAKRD

`O=C(Nc1ccc(Sc2ccc(N=Nc3c(O)c(S(=O)(=O)O)cc4cc(S(=O)(=O)O)ccc34)cc2)cc1)c1ccc(N=Nc2c(O)ccc3c(S(=O)(=O)O)cc(S(=O)(=O)O)cc23)cc1` [NSC76027] gave an IC50 [1] of roughly 3000 nM and a Kd [2] of 79 ± 8 nM.
